{"source": "the OPERA property sets (Mansouri et al. 2018)"}
{"details": "not given", "units": {"boiling point": "°C", "melting point": "°C"}}
{"smiles": "NCCO", "boiling point": 171, "log10 vapour pressure (mmHg)": -0.394, "melting point": 10.5, "ready biodegradability": "readily biodegradable"}
{"smiles": "CCn1ccnc1", "boiling point": 208}
{"smiles": "Clc1cc2c(Cl)c(Cl)c(Cl)c(Cl)c2cc1Cl", "log10 Koa": 9.58, "log10 vapour pressure (mmHg)": -6.46}
{"smiles": "O=C(O)CCC(=O)c1ccc(-c2ccccc2)cc1", "melting point": 186}
{"smiles": "Cc1ccccc1C(=O)Nc1cccc(OC(C)C)c1", "log10 vapour pressure (mmHg)": -6.38, "melting point": 92.5}
{"smiles": "C(#Cc1ccccc1)c1ccccc1", "boiling point": 300, "log10 vapour pressure (mmHg)": -2.64, "melting point": 62.5}
{"smiles": "O=[N+]([O-])c1cc([N+](=O)[O-])c(F)cc1F", "melting point": 73}
{"smiles": "COP(=S)(OC)Oc1c(Cl)cc(C)cc1Cl", "log10 Koc (L/kg)": 3.7, "log10 vapour pressure (mmHg)": -3.37, "melting point": 79}
{"smiles": "Cc1cc(CC(=O)O)n(C)c1C(=O)c1ccc(Cl)cc1", "melting point": 178}
{"smiles": "CC(C)(Oc1ccc(Cl)cc1)C(=O)OCCCOC(=O)C(C)(C)Oc1ccc(Cl)cc1", "melting point": 52}
{"smiles": "CCc1cc2c(s1)N(C)C(=O)CN=C2c1ccccc1Cl", "melting point": 119}
{"smiles": "Cc1ccc2c(ccc3ccccc32)c1", "log10 biodegradation half-life (days)": 1.36, "melting point": 58}
{"smiles": "C=CCOc1c(Br)cc(C(C)(C)c2cc(Br)c(OCC=C)c(Br)c2)cc1Br", "melting point": 119}
{"smiles": "CCN(CC)CCOc1ccc2nc(N(C)C)sc2c1.Cl.Cl", "melting point": 242}
{"smiles": "CCCCCCCCCCCCC1CCCCC1", "boiling point": 331, "melting point": 12.5}
{"smiles": "Cc1cn([C@H]2C[C@H](O)[C@@H](CO)O2)c(=O)[nH]c1=O", "melting point": 186}
{"smiles": "CC(C)(Cl)C(=O)O", "melting point": 31}
{"smiles": "CCOC(=O)c1cccc2ccccc12", "boiling point": 310}
{"smiles": "OCC(S)CS", "note": "(configuration not stated)", "log10 vapour pressure (mmHg)": -2.3}
{"smiles": "COc1ccc(C[C@H](N)C(=O)N[C@H]2[C@@H](O)[C@H](n3cnc4c(N(C)C)ncnc43)O[C@@H]2CO)cc1", "melting point": 176}
{"smiles": "CN(C)c1ccccc1N", "boiling point": 218}
{"smiles": "CCCC(c1ccccc1)c1ccccc1", "boiling point": 287, "melting point": 27}
{"smiles": "Nc1ncnc2c1ncn2[C@@H]1O[C@H](CO)[C@@H](OP(=O)(O)O)[C@H]1O", "melting point": 197}
{"smiles": "Cc1cc(C(C)(C)C)cc(C(C)(C)C)c1O", "boiling point": 269, "melting point": 51}
{"smiles": "OCC(O)CO", "boiling point": 290, "log10 Henry constant (atm·m³/mol)": -7.76, "log10 vapour pressure (mmHg)": -3.77, "melting point": 18.2, "ready biodegradability": "readily biodegradable"}
{"smiles": "O=[N+]([O-])C1CCCCC1", "boiling point": 205, "melting point": -34}
{"smiles": "CCOCCBr", "boiling point": 128}
{"smiles": "C=C(C)C(C)=O", "boiling point": 98, "melting point": -54}
{"smiles": "CC(C)(O)CCl", "boiling point": 128, "melting point": -20}
{"smiles": "Nc1cccc2cccnc12", "melting point": 70}
{"smiles": "NC1CCCC1", "boiling point": 108, "melting point": -82.7}
{"smiles": "Clc1cc(Cl)c(-c2c(Cl)cc(Cl)c(Cl)c2Cl)cc1Cl", "melting point": 83}
{"smiles": "COC(=O)CBr", "boiling point": 132}
{"smiles": "C/C(=N\\C#N)N(C)Cc1ccc(Cl)nc1", "melting point": 98.9}
{"smiles": "CC(=O)Oc1ccc(C)cc1", "boiling point": 212}
{"smiles": "CCCCOc1ccccc1OCCCC", "ready biodegradability": "not readily biodegradable"}
{"smiles": "CCOC(=O)C(C)C(=O)OCC", "boiling point": 201}
{"smiles": "CC1(C(=O)O)CCCCC1", "boiling point": 234, "melting point": 37.5}
{"smiles": "CCCCCCCCCCCCCCCCCCNC(=O)[C@H](O)[C@@H](O)[C@H](O)[C@H](O)CO", "ready biodegradability": "not readily biodegradable"}
{"smiles": "C=CCC(C)C", "boiling point": 53.9, "log10 vapour pressure (mmHg)": 2.43, "melting point": -154, "ready biodegradability": "not readily biodegradable"}
{"smiles": "CC(CC1CCCCC1)CC1CCCCC1", "boiling point": 295, "melting point": 0.6}
{"smiles": "Cc1cc(Cl)ccc1OC(C)C(=O)O", "note": "(configuration not stated)", "boiling point": 298, "log10 Koc (L/kg)": 1.3, "melting point": 94.5}
{"smiles": "CCC1Nc2cc(Cl)c(S(N)(=O)=O)cc2S(=O)(=O)N1", "note": "(configuration not stated)", "melting point": 270}
{"smiles": "O=[N+]([O-])c1ccccc1I", "boiling point": 290, "melting point": 54}
{"smiles": "Cc1cn(C)c2ccccc12", "boiling point": 258, "melting point": 142}
{"smiles": "O[C@H]1[C@H](O)[C@H](O)OC[C@H]1O", "melting point": 158}
{"smiles": "CCCCCCCC(=O)c1ccccc1", "boiling point": 285, "melting point": 22.8}
{"smiles": "C[C@]12CC[C@H]3[C@@H](CCC4=C(Cl)C(=O)CC[C@@]43C)[C@@H]1CC[C@@H]2O", "melting point": 189}
{"smiles": "CCCCCCCCCCCCCCCCCCCCCCCCCCCCCCC", "boiling point": 458, "log10 biodegradation half-life (days)": 2.44, "log10 vapour pressure (mmHg)": -10.9, "melting point": 67.9}
{"smiles": "CCC=C(C)C", "boiling point": 67.3, "log10 vapour pressure (mmHg)": 2.2, "melting point": -135}
{"smiles": "CCSCCO", "boiling point": 184, "melting point": -100}
{"smiles": "CC(C)NCC(O)c1ccc(O)c(O)c1", "note": "(configuration not stated)", "melting point": 170}
{"smiles": "O=C(Cl)c1ccc([N+](=O)[O-])cc1", "melting point": 75}
{"smiles": "N#CC1CC2CCC1C2", "note": "(configuration not stated)", "melting point": 44}
{"smiles": "N#CCN", "melting point": 101}
{"smiles": "COCCCNc1nc(NCCCOC)nc(SC)n1", "melting point": 55}
{"details": "fish"}
{"smiles": "Clc1cc(Cl)c(-c2c(Cl)c(Cl)cc(Cl)c2Cl)cc1Cl", "log10 biotransformation half-life (days)": 2.45}
{"smiles": "CC(C)(C)c1cc(-n2nc3ccc(Cl)cc3n2)c(O)c(C(C)(C)C)c1", "log10 BCF": 3.57, "log10 biotransformation half-life (days)": 0.72}
{"smiles": "Brc1cccc(Br)c1", "log10 BCF": 2.82, "log10 biotransformation half-life (days)": 1.16}
{"smiles": "COP(=S)(OC)Oc1c(Cl)cc(C)cc1Cl", "log10 BCF": 2.86, "log10 biotransformation half-life (days)": -0.11}
{"smiles": "Cc1ccc2c(ccc3ccccc32)c1", "log10 BCF": 3.48}
{"smiles": "Clc1cc(Cl)c(-c2c(Cl)cc(Cl)c(Cl)c2Cl)cc1Cl", "log10 biotransformation half-life (days)": 2.59}
